Reference: PubChem BioAssay (NCI)
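Growth conditions: 96-well plates. Treatment: test compound, 48 hours, 5 concentrations. Analysis: linear interpolation between bracketing concentrations; unreached endpoints set to highest concentration. The concentration for 50% growth inhibition is given as GI50. TGI is the concentration that stops growth completely.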

Key:
Experiment in all cases: NCI-60 cell line screen, 48 h
786-0 renal = tested on: 786-0 renal
A498 renal = tested on: A498 renal
ACHN renal = tested on: ACHN renal
BT-549 breast = tested on: BT-549 breast
CAKI-1 renal = tested on: CAKI-1 renal
CCRF-CEM leukemia = tested on: CCRF-CEM leukemia
COLO 205 colon = tested on: COLO 205 colon
DU-145 prostate = tested on: DU-145 prostate
EKVX NSCLC = tested on: EKVX NSCLC
HCC-2998 colon = tested on: HCC-2998 colon
HCT-116 colon = tested on: HCT-116 colon
HCT-15 colon = tested on: HCT-15 colon
HL-60(TB) leukemia = tested on: HL-60(TB) leukemia
HOP-62 NSCLC = tested on: HOP-62 NSCLC
HOP-92 NSCLC = tested on: HOP-92 NSCLC
HS 578T breast = tested on: HS 578T breast
HT29 colon = tested on: HT29 colon
IGROV1 ovarian = tested on: IGROV1 ovarian
K-562 leukemia = tested on: K-562 leukemia
KM12 colon = tested on: KM12 colon
LOX IMVI melanoma = tested on: LOX IMVI melanoma
M14 melanoma = tested on: M14 melanoma
MALME-3M melanoma = tested on: MALME-3M melanoma
MCF7 breast = tested on: MCF7 breast
MDA-MB-231 breast = tested on: MDA-MB-231 breast
MDA-MB-435 = tested on: MDA-MB-435
MOLT-4 leukemia = tested on: MOLT-4 leukemia
NCI-H226 lung = tested on: NCI-H226 lung
NCI-H23 lung = tested on: NCI-H23 lung
NCI-H460 lung = tested on: NCI-H460 lung
NCI-H522 lung = tested on: NCI-H522 lung
NCI/ADR-RES ovarian = tested on: NCI/ADR-RES ovarian
OVCAR-4 ovarian = tested on: OVCAR-4 ovarian
OVCAR-5 ovarian = tested on: OVCAR-5 ovarian
OVCAR-8 ovarian = tested on: OVCAR-8 ovarian
PC-3 prostate = tested on: PC-3 prostate
RPMI-8226 leukemia = tested on: RPMI-8226 leukemia
RXF 393 renal = tested on: RXF 393 renal
SF-268 CNS = tested on: SF-268 CNS
SF-295 CNS = tested on: SF-295 CNS
SF-539 CNS = tested on: SF-539 CNS
SK-MEL-2 melanoma = tested on: SK-MEL-2 melanoma
SK-MEL-28 melanoma = tested on: SK-MEL-28 melanoma
SK-MEL-5 melanoma = tested on: SK-MEL-5 melanoma
SK-OV-3 ovarian = tested on: SK-OV-3 ovarian
SN12C renal = tested on: SN12C renal
SNB-19 CNS = tested on: SNB-19 CNS
SNB-75 CNS = tested on: SNB-75 CNS
SW-620 colon = tested on: SW-620 colon
T-47D breast = tested on: T-47D breast
TK-10 renal = tested on: TK-10 renal
U251 CNS = tested on: U251 CNS
UACC-257 melanoma = tested on: UACC-257 melanoma
UACC-62 melanoma = tested on: UACC-62 melanoma
UO-31 renal = tested on: UO-31 renal

Question: What does the source list for `C#Cc1nc(C(=O)NCCCCCCC(=O)NO)cs1`?
Answer: GI50 (786-0 renal): 0.294 µM; TGI (786-0 renal): 0.838 µM; GI50 (A498 renal): 0.528 µM; TGI (A498 renal): 1.78 µM; GI50 (ACHN renal): 0.897 µM; TGI (ACHN renal): 2.19 µM; GI50 (BT-549 breast): 1.47 µM; TGI (BT-549 breast): 2.85 µM; GI50 (CAKI-1 renal): 0.997 µM; TGI (CAKI-1 renal): 2.31 µM; GI50 (CCRF-CEM leukemia): 0.284 µM; TGI (CCRF-CEM leukemia): 0.994 µM; GI50 (COLO 205 colon): 0.691 µM; TGI (COLO 205 colon): 2 µM; GI50 (DU-145 prostate): 0.367 µM; TGI (DU-145 prostate): 1.44 µM; GI50 (EKVX NSCLC): 1.55 µM; TGI (EKVX NSCLC): 3.19 µM; GI50 (HCC-2998 colon): 1.71 µM; TGI (HCC-2998 colon): 4.43 µM; GI50 (HCT-116 colon): 0.339 µM; TGI (HCT-116 colon): 1.56 µM; GI50 (HCT-15 colon): 1.47 µM; TGI (HCT-15 colon): 3.84 µM; GI50 (HL-60(TB) leukemia): 0.314 µM; TGI (HL-60(TB) leukemia): 0.805 µM; GI50 (HOP-62 NSCLC): 1.12 µM; TGI (HOP-62 NSCLC): 3.07 µM; GI50 (HOP-92 NSCLC): 0.571 µM; TGI (HOP-92 NSCLC): 1.81 µM; GI50 (HS 578T breast): 0.718 µM; TGI (HS 578T breast): 4.05 µM; GI50 (HT29 colon): 0.782 µM; TGI (HT29 colon): 2.44 µM; GI50 (IGROV1 ovarian): 0.572 µM; TGI (IGROV1 ovarian): 2.15 µM; GI50 (K-562 leukemia): 0.639 µM; TGI (K-562 leukemia): > 100 µM; GI50 (KM12 colon): 1.39 µM; TGI (KM12 colon): 3.6 µM; GI50 (LOX IMVI melanoma): < 0.0149 µM; TGI (LOX IMVI melanoma): 0.053 µM; GI50 (M14 melanoma): 1.22 µM; TGI (M14 melanoma): 4.03 µM; GI50 (MALME-3M melanoma): 0.314 µM; TGI (MALME-3M melanoma): 1.61 µM; GI50 (MCF7 breast): 0.939 µM; TGI (MCF7 breast): 7.25 µM; GI50 (MDA-MB-231 breast): 0.318 µM; TGI (MDA-MB-231 breast): 1.1 µM; GI50 (MDA-MB-435): 0.692 µM; TGI (MDA-MB-435): 3.45 µM; GI50 (MOLT-4 leukemia): 0.294 µM; TGI (MOLT-4 leukemia): 1.2 µM; GI50 (NCI-H226 lung): 1.74 µM; TGI (NCI-H226 lung): 6.49 µM; GI50 (NCI-H23 lung): 0.78 µM; TGI (NCI-H23 lung): 2.22 µM; GI50 (NCI-H460 lung): 0.587 µM; TGI (NCI-H460 lung): 7.25 µM; GI50 (NCI-H522 lung): 0.168 µM; TGI (NCI-H522 lung): 0.353 µM; GI50 (NCI/ADR-RES ovarian): 0.335 µM; TGI (NCI/ADR-RES ovarian): > 100 µM; GI50 (OVCAR-4 ovarian): 1.8 µM; TGI (OVCAR-4 ovarian): 5.12 µM; GI50 (OVCAR-5 ovarian): 1.03 µM; TGI (OVCAR-5 ovarian): 3.58 µM; GI50 (OVCAR-8 ovarian): 0.405 µM; TGI (OVCAR-8 ovarian): 2.11 µM; GI50 (PC-3 prostate): 1.83 µM; TGI (PC-3 prostate): 10.1 µM; GI50 (RPMI-8226 leukemia): 0.312 µM; TGI (RPMI-8226 leukemia): 1.55 µM; GI50 (RXF 393 renal): 0.392 µM; TGI (RXF 393 renal): 1.39 µM; GI50 (SF-268 CNS): 1.53 µM; TGI (SF-268 CNS): 3.44 µM; GI50 (SF-295 CNS): 0.983 µM; TGI (SF-295 CNS): 2.42 µM; GI50 (SF-539 CNS): 0.794 µM; TGI (SF-539 CNS): 2.24 µM; GI50 (SK-MEL-2 melanoma): 1.25 µM; TGI (SK-MEL-2 melanoma): 3.54 µM; GI50 (SK-MEL-28 melanoma): 1.21 µM; TGI (SK-MEL-28 melanoma): 5.1 µM; GI50 (SK-MEL-5 melanoma): 0.642 µM; TGI (SK-MEL-5 melanoma): 2.18 µM; GI50 (SK-OV-3 ovarian): 1.47 µM; TGI (SK-OV-3 ovarian): 4.01 µM; GI50 (SN12C renal): 1.62 µM; TGI (SN12C renal): 5.25 µM; GI50 (SNB-19 CNS): 2.21 µM; TGI (SNB-19 CNS): 10 µM; GI50 (SNB-75 CNS): 0.714 µM; TGI (SNB-75 CNS): 3.34 µM; GI50 (SW-620 colon): 0.346 µM; TGI (SW-620 colon): 1.82 µM; GI50 (T-47D breast): 0.288 µM; TGI (T-47D breast): 1.54 µM; GI50 (TK-10 renal): 0.263 µM; TGI (TK-10 renal): 1.53 µM; GI50 (U251 CNS): 1.12 µM; TGI (U251 CNS): 2.39 µM; GI50 (UACC-257 melanoma): 0.393 µM; TGI (UACC-257 melanoma): 2.84 µM; GI50 (UACC-62 melanoma): 0.433 µM; TGI (UACC-62 melanoma): 2.05 µM; GI50 (UO-31 renal): 0.174 µM; TGI (UO-31 renal): 0.332 µM
